Test results: US20260206761A1, “HETEROARYL-TRIAZOLE COMPOUNDS AS PESTICIDES” (Bayer Aktiengesellschaft, priority 2019, published 2026)

Assays:
Type in all cases: in vivo
[1] = tested on: adult engorged female ticks (Rhipicephalus microplus); assay: Rhipicephalus (Boophilus) microplus injection test; settings: 168 h, egg deposition after 7 days, read-out: activity (efficacy: infertile eggs); for pest or weed control at 4 pg: application rate 4 pg/animal; for pest or weed control at 0.02 mg: application rate 20 μg/animal
Procedure, shortened: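 Efficacy is scored from egg fertility, with 100% meaning every egg infertile and 0% every egg fertile. Five engorged females per test received 1 μL DMSO solution abdominally. Eggs of unclear fertility were kept until hatching, about 42 days.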

[2] = tested on: adult cat fleas (Ctenocephalides felis); assay: Ctenocephalides felis in-vitro contact test, adult cat flea; settings: application rate 5 μg/cm^2 (=500 g/ha), after 48 hours, read-out: activity (efficacy: fleas dead or moribund)
Procedure, shortened: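 Acetone solutions of compound coated onto inner walls of glass tubes (900 ppm giving […]); after drying, 5-10 adult Ctenocephalides felis added and held at room temperature. At 48 h, fleas placed on a 45-50° C heating plate; those unable to climb away scored dead or moribund, expressed as % efficacy.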

[3] = tested on: adult unfed cat fleas (Ctenocephalides felis); assay: Ctenocephalides felis oral test; settings: 48 h, read-out: activity (mortality)
Procedure, shortened: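 About 20 adult unfed fleas fed through parafilm on cattle blood containing compound (DMSO stock diluted in blood), blood held at 37 °C and fleas at room temperature. Mortality (%) scored after 2 days.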

[4] = tested on: larvae of the banded cucumber beetle (Diabrotica balteata); assay: Diabrotica balteata spray test; settings: 168 h, after 7 days, read-out: activity (efficacy: seedlings grown); for pest or weed control at 100 g/ha: application rate 100 g/ha (=32 pg/well); for pest or weed control at 500 g/ha: application rate 500 g/ha (=160 pg/well)
Procedure, shortened: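 Wheat seedlings, germinated 1 day on agar (5 seeds/well), sprayed with active compound in acetone/DMF diluted in water containing 1000 ppm emulsifier, then infested with 10-20 D. balteata larvae. Efficacy (%) scored after 7 days: 100% = seedlings grown as untreated uninfested control, 0% = no seedlings grown.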

[5] = tested on: green peach aphid (Myzus persicae); assay: Myzus persicae oral test; settings: 120 h, application rate 4 ppm, after 5 days
Procedure, shortened: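 Compound was dissolved at 1 part by weight in 100 parts acetone, then diluted with water to test concentration and combined with IPL41 insect medium (33%+15% sugar). A mixed aphid population fed on this through a parafilm seal, and mortality (%) was scored after 5 days.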

[6] = tested on: fall armyworm larvae (Spodoptera frugiperda); assay: Spodoptera frugiperda spray test; settings: 168 h, read-out: activity (mortality)
Procedure, shortened: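 Compound in acetone/DMF, diluted in water with 1000 ppm alkylarylpolyglycol ether emulsifier, sprayed on maize leaf sections. Dried leaves infested with fall armyworm larvae; % mortality after 7 days (100% = all killed, 0% = none).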

[7] = tested on: Aedes aegypti strain MONHEIM; assay: Aedes aegypti test (AEDSAE surface treatment & contact assay); settings: 24 hours after contact, read-out: efficacy (mortality); for mortality at 4 mg/m2: surface concentration 4 mg/m^2, exposure 30 minutes; for mortality at 20 mg/m2: surface concentration 20 mg/m^2, exposure 30 minutes
Procedure, shortened: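 Compound in acetone (2 mg/ml) with 2000 ppm RME pipetted onto glazed tile and dried; adult Aedes aegypti MONHEIM exposed 30 min. Percent mortality scored 24 h after contact.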

[8] = tested on: Musca domestica strain WHO-N; assay: Musca domestica test (MUSCDO surface treatment & contact assay); settings: 24 hours after contact, read-out: efficacy (mortality); for mortality at 20 mg/m2: surface concentration 20 mg/m^2, exposure 30 minutes; for mortality at 4 mg/m2: surface concentration 4 mg/m^2, exposure 30 minutes
Procedure, shortened: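 Compound dissolved at 2 mg/ml in acetone with 2000 ppm rapeseed oil methyl ester and pipetted onto a glazed tile. After the acetone evaporated, adult WHO-N flies were exposed to the dried surface for 30 min, with % mortality scored 24 h after contact.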

Question: How did the pest or weed control at 4 pg [1] turn out when `C[C@H](NC(=O)c1cc(Cl)cc(S(C)(=O)=O)c1)c1nc(C2CC2)nn1-c1ccc(C#N)cn1` [I-4] was run?
Answer: 100%

Question: And the pest or weed control at 0.02 mg [1]?
Answer: 100%

Question: And the pest or weed control at 5 µg/cm2 [2]?
Answer: 90%

Question: What about the mortality at 100 ppm [3] of the same compound?
Answer: 100%

Question: And the pest or weed control at 100 g/ha [4]?
Answer: 100%

Question: What about the pest or weed control at 500 g/ha [4] of the same compound?
Answer: 100%

Question: And the mortality at 4 ppm [5]?
Answer: 100%

Question: What about the mortality at 100 g/ha [6] of the same compound?
Answer: 100%

Question: What about the mortality at 500 g/ha [6] of the same compound?
Answer: 100%

Question: And the mortality at 4 mg/m2 [7]?
Answer: 80 to 100%

Question: What about the mortality at 20 mg/m2 [7] of the same compound?
Answer: 80 to 100%

Question: With `CC(C)c1nc([C@H](C)NC(=O)c2cc(OC(F)(F)F)cc(C3CC3)c2)n(-c2ccc(C#N)cn2)n1` [I-23] as the compound, how does the pest or weed control at 4 pg [1] read?
Answer: 100%

Question: And the pest or weed control at 0.02 mg [1]?
Answer: 100%

Question: What about the pest or weed control at 5 µg/cm2 [2] of the same compound?
Answer: 100%

Question: What about the mortality at 100 ppm [3] of the same compound?
Answer: 100%

Question: What about the pest or weed control at 100 g/ha [4] of the same compound?
Answer: 80%

Question: And the mortality at 100 g/ha [6]?
Answer: 100%

Question: And the mortality at 4 mg/m2 [7]?
Answer: 80 to 100%

Question: And the mortality at 20 mg/m2 [7]?
Answer: 80 to 100%

Question: And the mortality at 20 mg/m2 [8]?
Answer: 80 to 100%

Question: Which results are given for `CSc1cc(C#N)cc(C(=O)N[C@@H](C)c2ncnn2-c2ccc(C#N)cn2)c1` [II-3]?
Answer: pest or weed control at 4 pg [1]: 100%; pest or weed control at 0.02 mg [1]: 100%; pest or weed control at 5 µg/cm2 [2]: 100%; mortality at 100 ppm [3]: 100%; pest or weed control at 100 g/ha [4]: 100%; pest or weed control at 500 g/ha [4]: 100%; mortality at 4 ppm [5]: 100%; mortality at 500 g/ha [6]: 100%; mortality at 4 mg/m2 [7]: 80 to 100%; mortality at 20 mg/m2 [7]: 80 to 100%

Question: Which pest or weed control at 4 pg [1] does the source give for `Cc1nc([C@H](C)NC(=O)c2cc(C(F)(F)F)n(C)n2)n(-c2ccc(C#N)cn2)n1` [II-7] here?
Answer: 100%

Question: What about the pest or weed control at 0.02 mg [1] of the same compound?
Answer: 100%

Question: And the pest or weed control at 5 µg/cm2 [2]?
Answer: 100%

Question: And the mortality at 100 ppm [3]?
Answer: 100%

Question: What about the pest or weed control at 100 g/ha [4] of the same compound?
Answer: 100%

Question: What about the pest or weed control at 500 g/ha [4] of the same compound?
Answer: 100%

Question: And the mortality at 100 g/ha [6]?
Answer: 100%

Question: What about the mortality at 500 g/ha [6] of the same compound?
Answer: 100%

Question: What about the mortality at 4 mg/m2 [7] of the same compound?
Answer: 80 to 100%

Question: What about the mortality at 20 mg/m2 [7] of the same compound?
Answer: 80 to 100%

Question: And the mortality at 20 mg/m2 [8]?
Answer: 80 to 100%

Question: Which pest or weed control at 4 pg [1] does the source give for `Cc1nc([C@H](C)NC(=O)c2cc(Cl)nn2C)n(-c2ccc(C#N)cn2)n1` [II-11] here?
Answer: 100%

Question: And the pest or weed control at 0.02 mg [1]?
Answer: 100%

Question: What about the pest or weed control at 5 µg/cm2 [2] of the same compound?
Answer: 100%

Question: What about the mortality at 100 ppm [3] of the same compound?
Answer: 100%

Question: What about the pest or weed control at 100 g/ha [4] of the same compound?
Answer: 100%

Question: What about the pest or weed control at 500 g/ha [4] of the same compound?
Answer: 100%

Question: What about the mortality at 500 g/ha [6] of the same compound?
Answer: 100%

Question: And the mortality at 4 mg/m2 [7]?
Answer: 80 to 100%

Question: What about the mortality at 20 mg/m2 [7] of the same compound?
Answer: 80 to 100%

Question: What about the mortality at 4 mg/m2 [8] of the same compound?
Answer: 80 to 100%

Question: What does the source list for `C[C@H](NC(=O)c1cc(C#N)cc([S+](C)[O-])c1)c1ncnn1-c1ccc(C#N)cn1` (some centres unmarked) [II-12]?
Answer: pest or weed control at 4 pg [1]: 100%; pest or weed control at 0.02 mg [1]: 100%; pest or weed control at 5 µg/cm2 [2]: 100%; pest or weed control at 100 g/ha [4]: 100%; pest or weed control at 500 g/ha [4]: 100%; mortality at 4 ppm [5]: 100%; mortality at 500 g/ha [6]: 100%; mortality at 4 mg/m2 [7]: 80 to 100%; mortality at 20 mg/m2 [7]: 80 to 100%

Question: For `C[C@H](NC(=O)c1cc(C(F)(F)F)cc(S(C)(=O)=O)c1)c1ncnn1-c1ncccn1` [II-13], which pest or weed control at 4 pg [1] is on record?
Answer: 100%

Question: And the pest or weed control at 0.02 mg [1]?
Answer: 100%

Question: And the pest or weed control at 5 µg/cm2 [2]?
Answer: 100%

Question: What about the pest or weed control at 100 g/ha [4] of the same compound?
Answer: 100%

Question: What about the pest or weed control at 500 g/ha [4] of the same compound?
Answer: 100%

Question: What about the mortality at 4 ppm [5] of the same compound?
Answer: 100%

Question: What about the mortality at 500 g/ha [6] of the same compound?
Answer: 100%

Question: And the mortality at 4 mg/m2 [7]?
Answer: 80 to 100%

Question: What about the mortality at 20 mg/m2 [7] of the same compound?
Answer: 80 to 100%

Question: What about the mortality at 4 mg/m2 [8] of the same compound?
Answer: 80 to 100%

Question: What does the source list for `C[C@H](NC(=O)c1cc(C(F)(F)F)cc(S(C)(=O)=O)c1)c1ncnn1-c1ccc(Cl)cn1` [II-16]?
Answer: pest or weed control at 4 pg [1]: 100%; pest or weed control at 0.02 mg [1]: 100%; pest or weed control at 5 µg/cm2 [2]: 100%; mortality at 100 ppm [3]: 100%; pest or weed control at 100 g/ha [4]: 100%; pest or weed control at 500 g/ha [4]: 100%; mortality at 4 ppm [5]: 100%; mortality at 100 g/ha [6]: 100%; mortality at 500 g/ha [6]: 100%; mortality at 4 mg/m2 [7]: 80 to 100%; mortality at 20 mg/m2 [7]: 80 to 100%

Question: How did the pest or weed control at 4 pg [1] turn out when `C[C@H](NC(=O)c1cc(Cl)cc(S(=O)(=O)C(F)F)c1)c1ncnn1-c1ccc(C#N)cn1` [II-17] was run?
Answer: 100%

Question: And the pest or weed control at 0.02 mg [1]?
Answer: 100%

Question: What about the pest or weed control at 5 µg/cm2 [2] of the same compound?
Answer: 100%

Question: What about the mortality at 100 ppm [3] of the same compound?
Answer: 100%

Question: What about the pest or weed control at 100 g/ha [4] of the same compound?
Answer: 100%

Question: What about the pest or weed control at 500 g/ha [4] of the same compound?
Answer: 100%

Question: What about the mortality at 4 ppm [5] of the same compound?
Answer: 100%

Question: And the mortality at 100 g/ha [6]?
Answer: 83%

Question: And the mortality at 500 g/ha [6]?
Answer: 100%

Question: And the mortality at 4 mg/m2 [7]?
Answer: 80 to 100%

Question: And the mortality at 20 mg/m2 [7]?
Answer: 80 to 100%
